Experimental findings from patent US12497405B2, “Bicyclic heterocycle compounds methods of use thereof for the treatment of herpes viruses” (Merck Sharp & Dohme LLC, priority 2019, dated 2025) are described below.

Read-outs that look alike come from different tables or passages of the source.

One assay deals with HSV2. Kind of assay: Viral qPCR assay, HSV2. The class given is cell-based. Conditions: infected cells, viral genome copies by qPCR normalized to PPIA, read-out: HSV2 Cell EC50. In short, it runs like this: (§1)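 EC50 reflects inhibition of viral DNA copies relative to PPIA after roughly 72 hrs of infection in MRC5, Vero or MeWo cells. Copy numbers were derived by TaqMan qPCR from a plasmid standard curve.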

Assay [1] concerns the target Human cytomegalovirus DNA polymerase (Human cytomegalovirus (strain AD169) (HHV-5) (Human herpesvirus 5), UniProt P08546). Kind of assay: CMV polymerase assay (AlphaLISA). Conditions: HCMV polymerase 0.2 nM, 30 min pre-incubation, 60 minute at 37° C. The class given is biochemical. The procedure:
(§2) Human cytomegalovirus and varicella zoster virus DNA polymerases were expressed via baculovirus vector in SF21 cells and purified. Heterodimeric nucleic acid substrate used in the herpesvirus polymerase reactions were generated by annealing a 59-mer template to a 17-mer digoxigenin-labeled primer. Polymerase (HCMV final concentration of 0.2 nM; VZV final concentration of 0.4 nM) was combined with an inhibitor compound or DMSO in assay buffer (10 mM HEPES, pH 7.5, 25 mM KCl, 25 mM NaCl, 5 mM MgCl2, 5% glycerol, 0.67 mg/ml bovine serum albumin, and 1 mM tris(2-carboxyethyl)phosphine)), and this mixture was pre-incubated for 30 minutes at room temperature in 384-well microtiter plates. The polymerization reaction was initiated by the addition of template/primer substrate (final concentration: 1.6 nM), and dNTPs (final concentration: 24 nM dCTP, 24 nMdGTP, 16 nM dATP, 16 nM dTTP, and 0.8 nM biotin-dUTP). After a 60 minute incubation period at 37° C., the reactions were terminated using quench buffer (25 mM HEPES pH 7.5, 100 mM NaCl, 0.25% Tween-20, 12 mM EDTA, and 1 mg/ml bovine serum albumin). Incorporation of biotinylated UTP was detected with 2.5-5 μg/mL anti-DIG AlphaLISA acceptor beads and 5-10 μg/mL streptavidin AlphaLISA donor beads (PerkinElmer). Compound effects were normalized to the window defined by the controls (DMSO only and pre-quenched wells), and were fit using a 4-parameter algorithm to report an IC50.

In a further assay the test system is HSV1. Description: Viral qPCR assay, HSV1. The class given is cell-based. Conditions: infected cells, viral genome copies by qPCR normalized to PPIA, read-out: HSV1 Cell EC50. The gist of the method: as §1
Assay [2] concerns the target varicella zoster virus DNA polymerase (Varicella-zoster virus (strain Dumas) (HHV-3) (Human herpesvirus 3), UniProt P09252). Kind of assay: VZV polymerase assay (AlphaLISA). The conditions noted are these: VZV polymerase 0.4 nM, 30 min pre-incubation, 60 minute at 37° C. The class given is biochemical. The procedure:
as §2

A further assay relates to CMV. Description: Viral qPCR assay, CMV. The class given is cell-based. The conditions noted are these: infected cells, viral genome copies by qPCR normalized to PPIA, read-out: CMV Cell EC50. The gist of the method: as §1

On to `N#Cc1cc2ncn(Cc3ccc(Cl)cc3)c(=O)c2cc1O[C@H]1CCN2C(=O)OC[C@@H]2C1` [Example 41], for which the EC50 was found to be 75 nM with HSV2 (Human alphaherpesvirus 2, 72 h); 131 nM in the assay on HSV1 (Human alphaherpesvirus 1, 72 h); 77 nM in the assay on CMV (Human betaherpesvirus 5, 72 h). For the same molecule, the IC50 in assay [1] was determined as 2.7 nM; in assay [2] it was 1.1 nM.
Consider `Cc1nc2cc(-c3cnn(C(F)F)c3)c(O[C@H]3CCN4C(=O)OC[C@@H]4C3)cc2c(=O)n1Cc1ccc(Cl)cc1` [Example 4], for which the EC50 with HSV2 (~72 hrs) was 26 nM; in the assay with HSV1 (~72 hrs), 60 nM; in the assay on CMV (~72 hrs), 51 nM. The values for the IC50 in assay [1] and in assay [2] were 1.1 nM and 3.1 nM, respectively.
As for `O=C1OC[C@@H]2C[C@@H](Oc3cc4c(=O)n(Cc5ccc(Cl)cc5)ccc4cc3-c3cnn(C(F)F)c3)CCN12` [Example 27], the EC50 with HSV2 (Human alphaherpesvirus 2, 72 h) amounted to 59 nM; with HSV1 (Human alphaherpesvirus 1, 72 h), 124 nM; in the assay on CMV (Human betaherpesvirus 5, 72 h), 114 nM. In addition, the IC50 in assay [1] came to 5.3 nM; in assay [2], 5.9 nM.
On the same counts, the results for `Cc1nc2cc(C#N)c(O[C@H]3CCN4C(=O)OC[C@@H]4C3)cc2c(=O)n1Cc1ccc(Cl)cc1` [Example 56] are 109 nM, 124 nM, 64 nM, 2.8 nM and 6.5 nM.
On the same counts, the results for `Cc1nc2cc(C3CC(C)(O)C3)c(O[C@H]3CCN4C(=O)OC[C@@H]4C3)cc2c(=O)n1Cc1ccc(C#N)cc1` (some centres unmarked) [Example 74] are 432 nM, 447 nM, 55 nM, 6.4 nM and 6.4 nM.
For `CCc1nc2cc(-c3cnco3)c(O[C@H]3CCN4C(=O)OC[C@@H]4C3)cc2c(=O)n1Cc1ccc(C#N)cc1` [Example 65], the concentration giving a half-maximal response (EC50) in the assay with HSV2 (Human alphaherpesvirus 2, 72 h) was 18 nM; in the assay on HSV1 (Human alphaherpesvirus 1, 72 h), 46 nM; with CMV (Human betaherpesvirus 5, 72 h) it was 28 nM. The IC50 worked out at 1.2 nM in assay [1] and 0.68 nM in assay [2].
On the same counts, the results for `Cc1nc2cc(-c3cnc(C4CC4)nc3)c(O[C@H]3CCN4C(=O)OC[C@@H]4C3)cc2c(=O)n1Cc1ccc(Cl)cc1` [Example 95] are 182 nM, 301 nM, 366 nM, 18 nM and 19 nM.
On the same counts, the results for `Cc1nc2cc(C3CC(O)C3)c(O[C@H]3CCN4C(=O)OC[C@@H]4C3)cc2c(=O)n1Cc1ccc(C#N)cc1` (some centres unmarked) [Example 72] are 404 nM, 181 nM, 195 nM, 7.5 nM and 4.7 nM.
`Cc1nc2cc(-c3cnn(C)c3)c(O[C@H]3CCN4C(=O)OC[C@@H]4C3)cc2c(=O)n1Cc1ccc(Cl)cc1` [Example 52]: the EC50 came out at 19 nM in the assay on HSV2 (Human alphaherpesvirus 2, 72 h); 39 nM in the assay with HSV1 (Human alphaherpesvirus 1, 72 h); 22 nM in the assay on CMV (Human betaherpesvirus 5, 72 h). The IC50 in assay [1] is 0.3 nM; in assay [2], 0.44 nM.
In the case of `N#Cc1ccc(Cn2c(=O)[nH]c3cc(-c4cnco4)c(O[C@H]4CCN5C(=O)OC[C@@H]5C4)cc3c2=O)cc1` [Example 10], the EC50 amounted to 68 nM in the assay on HSV2 (~72 hrs), 109 nM in the assay on HSV1 (~72 hrs) and 70 nM with CMV (~72 hrs). The IC50 in assay [1] worked out at 0.24 nM; in assay [2], 0.28 nM.
As for `Cc1nc2ncc(O[C@H]3CCN4C(=O)OC[C@@H]4C3)cc2c(=O)n1Cc1ccc(Cl)cc1` [Example 69], the concentration for a half-maximal effect (EC50) in the assay with HSV2 (Human alphaherpesvirus 2, 72 h) came to 1300 nM; in the assay with HSV1 (Human alphaherpesvirus 1, 72 h), 870 nM; in the assay on CMV (Human betaherpesvirus 5, 72 h) it was 307 nM. The figures for the IC50 in assay [1] and in assay [2] were 35 nM and 29 nM, respectively.
Taken in the same sequence, the figures for `CCc1nc2cc(-c3cnc(OC)nc3)c(O[C@H]3CCN4C(=O)OC[C@@H]4C3)cc2c(=O)n1Cc1ccc(Cl)cc1` [Example 78] were 224 nM, 405 nM, 178 nM, 15 nM and 20 nM.
On the same counts, the results for `Cc1nc2cc(-c3cc4n(n3)CCN(C)C4)c(O[C@H]3CCN4C(=O)OC[C@@H]4C3)cc2c(=O)n1Cc1ccc(Cl)cc1` [Example 86] are 41 nM, 58 nM, 68 nM, 0.44 nM and 0.44 nM.
On the same counts, the results for `Cc1nc2cc(-c3cn4c(n3)CN(C)CC4)c(O[C@H]3CCN4C(=O)OC[C@@H]4C3)cc2c(=O)n1Cc1ccc(Cl)cc1` [Example 79] are 123 nM, 111 nM, 147 nM, 4.9 nM and 5.5 nM.
As for `Cc1nc2cc(C3CCC3O)c(O[C@H]3CCN4C(=O)OC[C@@H]4C3)cc2c(=O)n1Cc1ccc(C#N)cc1` (single isomer, unassigned) [Example 85], the EC50 with HSV2 (Human alphaherpesvirus 2, 72 h) amounted to 736 nM; in the assay on HSV1 (Human alphaherpesvirus 1, 72 h), 673 nM; with CMV (Human betaherpesvirus 5, 72 h), 338 nM. Besides, the IC50 worked out at 10 nM in assay [1] and 11 nM in assay [2].
For `Cc1nc2cc(-c3ccn(C(F)F)n3)c(O[C@H]3CCN4C(=O)OC[C@@H]4C3)cc2c(=O)n1Cc1ccc(Cl)cc1` [Example 13], the EC50 with HSV2 (~72 hrs) stood at 38 nM; with HSV1 (~72 hrs) it was 37 nM; with CMV (~72 hrs), 49 nM. The IC50 in assay [1] turned out to be 1 nM; in assay [2], 3.5 nM.
With `Cc1nc2cc(-c3cccnc3)c(O[C@H]3CCN4C(=O)OC[C@@H]4C3)cc2c(=O)n1Cc1ccc(Cl)cc1` [Example 54], the EC50 was determined as 173 nM with HSV2 (Human alphaherpesvirus 2, 72 h); 238 nM in the assay on HSV1 (Human alphaherpesvirus 1, 72 h); 82 nM in the assay on CMV (Human betaherpesvirus 5, 72 h). Further, the IC50 amounted to 23 nM in assay [1] and 28 nM in assay [2].
As for `COc1cnc(-c2cc3nc(C)n(Cc4ccc(Cl)cc4)c(=O)c3cc2O[C@H]2CCN3C(=O)OC[C@@H]3C2)nc1` [Example 88], the EC50 with HSV2 (Human alphaherpesvirus 2, 72 h) is 225 nM; in the assay on HSV1 (Human alphaherpesvirus 1, 72 h), 543 nM; in the assay with CMV (Human betaherpesvirus 5, 72 h), 718 nM. Besides, the IC50 in assay [1] was 28 nM; in assay [2] it was 25 nM.
Taken in the same sequence, the figures for `CC(C)(O)Cc1nc2ncn(Cc3ccc(Cl)cc3)c(=O)c2cc1O[C@H]1CCN2C(=O)OC[C@@H]2C1` [Example 45] were 309 nM, 268 nM, 269 nM, 11 nM and 25 nM.
On the same counts, the results for `COc1nc2ccn(Cc3ccc(Cl)cc3)c(=O)c2cc1O[C@H]1CCN2C(=O)OC[C@@H]2C1` [Example 39] are 952 nM, 1340 nM, 520 nM, 28 nM and 41 nM.
On the same counts, the results for `O=C1OC[C@@H]2C[C@@H](Oc3cc4c(=O)n(Cc5ccc(Cl)cc5)ccc4nc3-c3cnn(C(F)F)c3)CCN12` [Example 31] are 46 nM, 139 nM, 101 nM, 3 nM and 2.1 nM.
As to `CCOc1ncc(-c2cc3nc(C)n(Cc4ccc(Cl)cc4)c(=O)c3cc2O[C@H]2CCN3C(=O)OC[C@@H]3C2)cn1` [Example 98], the EC50 was found to be 185 nM in the assay on HSV2 (Human alphaherpesvirus 2, 72 h); 256 nM in the assay on HSV1 (Human alphaherpesvirus 1, 72 h); 284 nM with CMV (Human betaherpesvirus 5, 72 h). The IC50 is 16 nM in assay [1] and 15 nM in assay [2].
With `CC1CN(C)CCC1(F)c1ccc2ncn(Cc3ccc(Cl)cc3)c(=O)c2c1` (single isomer, unassigned) [Example 47], the EC50 came out at 1370 nM in the assay with HSV2 (Human alphaherpesvirus 2, 72 h); 1580 nM with HSV1 (Human alphaherpesvirus 1, 72 h); 550 nM in the assay on CMV (Human betaherpesvirus 5, 72 h). Also, the IC50 came out at 84 nM in assay [1] and 102 nM in assay [2].
In the case of `O=C1OC[C@@H]2C[C@@H](Oc3cc4c(=O)n(Cc5ccc(Cl)cc5)ccc4cn3)CCN12` [Example 2], the results for the EC50 in the assay with HSV2 (~72 hrs), in the assay on HSV1 (~72 hrs) and with CMV (~72 hrs) were 1050 nM, 1700 nM and 872 nM, respectively. Further, the values for the IC50 in assay [1] and in assay [2] were 49 nM and 44 nM, respectively.
In the case of `Cc1nc2cc(-c3cnn(C4CCN(C)CC4)c3)c(O[C@H]3CCN4C(=O)OC[C@@H]4C3)cc2c(=O)n1Cc1ccc(C#N)cc1` [Example 71], the EC50 in the assay with HSV2 (Human alphaherpesvirus 2, 72 h) was 171 nM; in the assay with HSV1 (Human alphaherpesvirus 1, 72 h), 234 nM; in the assay on CMV (Human betaherpesvirus 5, 72 h), 197 nM. The IC50 in assay [1] worked out at 3.7 nM; in assay [2], 13 nM.
